Experimental findings from patent US12252457B2, “Compositions and methods for reducing tactile dysfunction, anxiety, and social impairment” (President and Fellows of Harvard College, priority 2018, dated 2025) are described below.

Each structure is given as a SMILES string. “Also recorded” adds a separate entry of the source. Structures can show the parent of a compound that is named as a salt.

The test system of the data set is mutant mice (Advillin^Cre; Mecp2^f/y, Advillin^Cre; Shank3^f/f, Advillin^Cre; Gabrb3^f/+, Advillin^Cre; Gabrb3^f/f). Description: Tactile prepulse inhibition (PPI) assay and response to air puff alone, acute Compound 5. Format: in vivo, mouse. Particulars: 2 mg/kg i.p. The procedure: FIG. 1 is a graph showing percent inhibition of an acoustic startle response (PPI) to a 125-dB noise (pulse), when the startle noise was preceded by a light air puff (prepulse, 0.9 PSI, 50 ms) at an interstimulus interval of 250 ms. Values are expressed as percent of control littermates' performance. Experiments were performed in mutant mice (Advillin^Cre; Mecp2^f/y, Advillin^Cre; Shank3^f/f) and control littermates, 30 minutes after an intraperitoneal injection of either saline (vehicle) the peripherally restricted Compound 5 (2 mg/kg). Two-way ANOVA, with post-hoc Holm-Sidak's test, *, p<0.05, when comparing mutants to control within same treatment; I, p<0.05, or p<0.10, when comparing the same genotype across different treatments.
FIG. 2 is a graph showing response to a light air puff stimulus alone (0.9 PSI, 50 ms). Responses are expressed as a percent of startle response to a 125-B noise. Experiments were performed in mutant mice (Advillin^Cre; Mecp2^f/y, Advillin^Cre; Shank3^f/f) and control littermates, 30 minutes after an intraperitoneal injection of either saline (vehicle) the peripherally restricted Compound 5 (2 mg/kg). Two-way ANOVA, with post-hoc Holm-Sidak's test, *, p<0.05, when comparing mutants to control within same treatment; I, p<0.05, when comparing the same genotype across different treatments.
FIG. 3 is a graph showing magnitude of startle response to a 125-dB noise. Experiments were performed in mutant mice (Advillin^Cre; Mecp2^f/y, Advillin^Cre; Shank3^f/f) and control littermates, 30 minutes after an intraperitoneal injection of either saline (vehicle) the peripherally restricted Compound 5 (2 mg/kg).
FIG. 4 is a graph showing the percent inhibition of an acoustic startle response (PPI) to a 125-dB noise (pulse), when the startle noise was preceded by a light air puff (prepulse, 0.9 PSI, 50 ms) at an interstimulus interval of 250 ms. Values were expressed as percent of control littermates' performance. Experiments were performed in mutant mice (Advillin^Cre; Mecp2^f/y, Advillin^Cre; Shank3^f/f, Advillin^Cre; Gabrb^3f/+, Advillin^Cre; Gabrb3^f/f) and control littermates, 30 minutes after an intraperitoneal injection of either saline (vehicle) or Compound 5 at 2 mg/kg. […] Two-way ANOVA, with post-hoc Holm-Sidak's test, *, p<0.05, when comparing mutants to control within same treatment; t, p<0.05, or #, p<0.10, when comparing the same genotype across different treatments.
FIG. 5 is a graph showing the response to a light air puff stimulus alone (0.9 PSI, 50 ms). Responses were expressed as a percent of startle response to a 125-B noise. Experiments were performed in mutant mice (Advillin^Cre; Mecp2^f/y, Advillin^Cre; Shank3^f/f, Advillin^Cre; Gabrb3^f/+, Advillin^Cre; Gabrb3^f/f) and control littermates, 30 minutes after an intraperitoneal injection of either saline (vehicle) or Compound 5 at 2 mg/kg. […] Two-way ANOVA, with post-hoc Holm-Sidak's test, *, p<0.05, when comparing mutants to control within same treatment; f, p<0.05, when comparing the same genotype across different treatments. […]
FIGS. 1 and 4 show the percent inhibition of an acoustic startle response (PPI) to a 125-dB noise (pulse), when the startle noise was preceded by a light aft puff (prepulse, 0.9 PSI, 50 ms) at an interstimulus interval of 250 ms. Values were expressed as percent of control littermates' performance. […]

Setting [1] is: Advillin^Cre, Mecp2^f/y, Shank3^f/f, Gabrb3^f/+ mice, 30 min, vs saline.

As for `NC1C=C(C(=O)O)CCC1` (centres unmarked) [Compound 5, 3-aminocyclohex-1-enecarboxylic acid hydrochloride], the “tactile (hairy skin) sensitivity in mice with complete loss of GABA-A receptors on peripheral somatosensory neurons” value (Advillin^Cre, Gabrb3^f/f mice, 30 min, hydrochloride, 2 mg/kg) is recorded as “do not show a reduction in tactile sensitivity; also recorded: did not show any improvements in hairy skin sensitivity”. Under setting [1], the “responsivity to a light air puff stimulus alone (0.9 PSI, 50 ms)” value was “reduced responsivity to an air puff stimulus” and the “tactile PPI performance” value is recorded as “reduced tactile PPI performance”. Also, the “hairy skin hypersensitivity (tactile PPI assay and response to air puff stimulus alone)” value (Mecp2, Shank3 and Gabrb3 heterozygous conditional mutant mice, 30 minutes after injection, hydrochloride, 2 mg/kg) is “reduces hairy skin over-reactivity; also recorded: significantly reduced hairy skin hypersensitivity; also recorded: reduces hairy skin hypersensitivity”. For the setting “mutant mice and control littermates, 30 min, hydrochloride, 2 mg/kg”, the “motor behaviors or sedation, average startle amplitude elicited by a 125-dB noise” value is reported as “did not have negative effects on motor behaviors or sedation; also recorded: no significant differences between any genotypes or treatment groups”.
